From patent publication US4263437A, “Acetic acid derivatives of 5,6-dihydrobenzo[b]pyrido[3,2-f]thiepine and oxepine” (Nippon Chemiphar Co., Ltd., priority 1978, dated 1981)

test system: carrageenan-induced edema in the hind paws; experiment: Carrageenan-induced hind paw edema in rats (oral administration); assay type: in vivo, Male Wistar rats; settings: Rattus norvegicus, 1 hour before 0.1 ml of 1% carrageenan, 3 hours
Method: Male Wistar rats each weighing about 100 g, one group consisting of 5 to 7 animals, were orally given the compounds according to this invention, and edema was induced in the hind paws by subcutaneous injections of 0.1 ml of 1% carrageenan one hour after the administration of the test compounds. Thereafter, the volumes of the hind paws were measured by a volume differential meter.

Going from `O=C(O)Cc1ccc2c(c1)C(=O)Cc1ccccc1S2` [Compound 1, (10,11-Dihydro-11-oxo dibenzo[b,f]thiepin-2-yl)-acetic acid] to `NC(=O)Cc1ccc2c(c1)C(=O)Cc1ccccc1S2` [Compound 2, (10,11-Dihydro-11-oxo dibenzo[b,f]thiepin-2-yl)-acetamide], the inhibition in vivo at 5 mg/kg falls from 58% to 42.1%.

First: CCOC(=O)Cc1ccc2c(c1)C(=O)Cc1ccccc1S2 [Compound 3, Ethyl(10,11-dihydro-11-oxodibenzo[b,f]thiepin-2-yl)-acetate]
Second: CCOC(=O)Cc1ccc2c(c1)C(=O)Cc1ccccc1O2 [Compound 7, Ethyl(10,11-dihydro-11-oxodibenzo[b,f]oxepin-2-yl)-acetate]
The inhibition in vivo at 5 mg/kg of the first is higher: 50.6% for the first, 47.9% for the second.

First: O=C(O)Cc1ccc2c(c1)CCc1ccccc1S2 [Compound 4, (10,11-Dihydro dibenzo[b,f]thiepin-2-yl)-acetic acid]
Second: CCOC(=O)Cc1ccc2c(c1)CCc1ccccc1S2 [Compound 5, Ethyl(10,11-dihydrodibenzo[b,f]thiepin-2-yl)-acetate]
The inhibition in vivo at 5 mg/kg of the first is lower: 45.3% for the first, 46% for the second.

Compared with `O=C(O)Cc1ccc2c(c1)C(=O)Cc1ccccc1O2` [Compound 6, (10,11-dihydro-11-oxo dibenzo[b,f]oxepin-2-yl)-acetic acid], `O=C(O)Cc1ccc2c(c1)CCc1ccccc1O2` [Compound 8, (10,11-Dihydro dibenzo[b,f]oxepin-2-yl)-acetic acid] is higher in inhibition in vivo at 5 mg/kg: 44.1% for the first, 61.4% for the second.

Going from `CCOC(=O)Cc1ccc2c(c1)CCc1ccccc1O2` [Compound 9, Ethyl (10,11-dihydro dibenzo[b,f]oxepin-2-yl)-acetate] to `CCOC(=O)Cc1ccc2c(c1)CCc1cccnc1O2` [Compound 15, Ethyl(5,6-dihydrobenzo[b]pyrido[3,2-f]oxepin-8-yl)-acetate], the inhibition in vivo at 5 mg/kg falls from 63.4% to 41.6%.

First: COC(=O)Cc1ccc2c(c1)C(=O)Cc1cccnc1S2 [Compound 10, Methyl (5,6-dihydro-6-oxo benzo[b]pyrido[3,2-f]thiepin-8-yl)-acetate]
Second: CCOC(=O)Cc1ccc2c(c1)CCc1cccnc1S2 [Compound 13, Ethyl(5,6-dihydrobenzo[b]pyrido[3,2-f]thiepin-8-yl)-acetate]
The inhibition in vivo at 5 mg/kg of the first is lower: 38.4% for the first, 64.6% for the second.

Going from `O=C(O)Cc1ccc2c(c1)CCc1cccnc1S2` [Compound 11, (5,6-Dihydro benzo[b]pyrido[3,2-f]thiepin-8-yl)-acetic acid] to `NC(=O)Cc1ccc2c(c1)CCc1cccnc1S2` [Compound 12, (5,6-Dihydro benzo[b]pyrido[3,2-f]thiepin-8yl)-acetamide], the inhibition in vivo at 5 mg/kg falls from 59.7% to 43.9%.

Going from `O=C(O)Cc1ccc2c(c1)CCc1cccnc1O2` [Compound 14, (5,6-Dihydro benzo[b]pyrido[3,2-f]oxepin-8-yl)-acetic acid] to `O=C(O)c1ccccc1Nc1cccc(C(F)(F)F)c1` [Flufenamic acid, reference compound], the inhibition in vivo at 5 mg/kg falls from 50.6% to 29.3%.

Molecule `CCCCC1C(=O)N(c2ccccc2)N(c2ccccc2)C1=O` [Phenylbutazone, reference compound] has an inhibition in vivo at 5 mg/kg of 20.9%.
